Laboratory results as given in the NIST ThermoML archive (doi:10.1016/j.fluid.2008.06.007).

Settings: Liquid, Vibrating tube method

CCCCCO [pentan-1-ol]
mass density [kg/m3]
Settings	353.15 K	363.15 K	373.15 K	383.15 K	393.15 K	403.15 K
100 kPa	768.1	759.4	750.7	741.5	731.7	721.7
10000 kPa	777.3	769.2	761.2	752.3	743.4	734.4
20000 kPa	785.6	777.7	770.3	761.9	753.7	745.3
30000 kPa	792.9	785.6	778.2	770.7	762.8	754.9
40000 kPa	799.8	792.6	785.7	778.5	771	763.4
50000 kPa	806.1	799.2	792.5	785.7	778.6	771.3
60000 kPa	812	805.5	798.9	792.3	785.6	778.4
70000 kPa	817.6	811.3	804.9	798.5	792	785.1
80000 kPa	822.8	816.7	810.5	804.3	798.1	791.3
90000 kPa	827.8	821.8	815.8	809.7	803.7	797.2
100000 kPa	832.6	826.8	820.9	815	809.1	802.8
110000 kPa	837.2	831.3	825.7	819.9	814.2	808
120000 kPa	841.6	835.8	830.3	824.7	819.1	813
130000 kPa	845.8	840.1	834.7	829.2	823.7	817.8
140000 kPa	849.7	844.2	839	833.5	828.1	822.3
